# Reference: patent publication US20060222628A1, “Gallium complexes of 3-hydroxy-4-pyrones to treat infection by intracellular prokaryotes and DNA viruses” (priority 1999, published 2006)
# Tests used:
# hepatitis B = experiment: Clinical evaluation in co-infection by HIV and hepatitis B: hepatitis B; format: in vivo, human
# Method: (§1) Gallium maltolate is evaluated clinically for efficacy in treating hepatitis B co-infection of a HIV-1 patients. In addition to the methods used in Example 5 for evaluating the HIV disease, the methods employed in the clinical studies discussed in the following references are used in the evaluation: Yao et al. (1997), “Treatment of Chronic Hepatitis B: New Antiviral Therapies,” Curr. Gastroenterol. Rep. 1(1):20-26; Hoofnagle et al. (1997), “New therapies for chronic hepatitis B,” supra.
# (§2) Patients are treated once per day with gelatin capsules containing gallium maltolate. The population of patients with hepatitis B and HIV infection are first divided into two subpopulations groups based on CD4+ counts (above 350/mm^3 and below 350/mm^3). […]
# (§3) In each subpopulation, the first group's four subgroups from each subpopulation (above 350/mm^3 and below 350/mm^3) additionally receive the gallium maltolate dose together with 10 million IU interferon by injection once per day. […] Patients are monitored for HIV disease precisely as described in Example 5. Patients are also medically monitored for liver disease, including liver function testing and examination for medical symptoms of hepatitis B infection throughout the study, with careful attention to the possibility that the drugs themselves may cause some liver disease and elevate the liver function tests. […]
# HIV-1 = experiment: Clinical evaluation in co-infection by HIV and hepatitis B: HIV; format: in vivo, human; details: hepatitis B co-infected patients; MacSynergy II
# Method: as §1, §2, §3
# HIV = experiment: Clinical evaluation for prevention of CMV disease in HIV patients: HIV; format: in vivo; details: CMV prevention study; MacSynergy II
# Method: Patients are treated once per day with gelatin capsules containing gallium maltolate. The population of patients with CMV (almost universal, seropositive or culture positive patients) and HIV infection are first divided into two subpopulations groups based on CD4+ counts (above 350/mm^3 and below 350/mm^3). The subpopulations are randomly and blindly divided into two groups each randomly subdivided into subgroups for a total of sixteen approximately equal subgroups that receive either 0 (placebo), 250, 500, or 750 mg/day gallium maltolate for about six months. All subgroups receive the identical regimen of non-gallium antiretroviral therapy as described in Example 5 (a HAART regime). […] In each subpopulation, the first group's four subgroups from each subpopulation (above 350/mm^3 and below 350/mm^3) additionally receive the gallium maltolate dose together with 5500 mg foscarnet, IV infusion over 1.5-2 hr., twice per day. In each subpopulation, the second group's four subgroups receive the gallium maltolate dose together with 1000 mg ganciclovir four times per day. Patients are monitored for HIV disease precisely as described in Example 5. Patients are also medically monitored for CMV disease, including testing and examination for medical symptoms of CMV disease, such as CMV retinitis, throughout the study. Any mucosal or skin lesions are studied by in situ hybridization for CMV DNA. […]
smiles,measurement,setting,value
"Cc1occc(=O)c1[O-].Cc1occc(=O)c1[O-].Cc1occc(=O)c1[O-].[Ga+3] [gallium maltolate, tris(3-hydroxy-2-methyl-4H-pyran-4-onato)gallium]",Efficacy in treating hepatitis B infection in combination,"hepatitis B; HIV co-infected patients on HAART, with interferon-alpha or lamuvidine",effective in combination with interferon and interferon plus nucleoside analogs
same,Synergy in treating hepatitis B infection,hepatitis B; with interferon and interferon plus nucleoside analogs,synergistic with both
same,Synergy with the HAART regime on HIV infection,HIV-1,synergistic with the HAART regime in their effects upon the HIV infection
same,Synergy with the HAART regime on HIV infection,HIV,synergistic with the HAART regime in their effects upon the HIV infection
